Tests used:
[1] = system: IKK complex; assay: Immunoprecipitation and kinase assay of IKK complex from stimulated HUVEC (GST-IκB-α phosphorylation); assay type: cell-based, human
Description: Cells were incubated as indicated and cytosol extracts were made. Immunoprecipitation (IP) with antikinase antibodies as indicated was followed by a kinase assay using the substrate GST.IκB-α in the presence of ^32P-ATP. A time-dependent phosphorylation of the substrate is shown in each case after stimulation of HUVEC with blood platelets (PLT; 2×10^8/ml) (FIG. 6A), IL-1β (100 pg/ml) (FIG. 6B) or TNF (1.67 ng/ml) (FIG. 6C). A representative experiment is shown for each case (n=3). FIG. 6D: the kinase assays were scanned and analysed densitometrically.
Cytosol extracts were subjected to immunoprecipitation (IP) (7) in TNT buffer containing 1 mM dithiothreitol, 0.5 μM 4-(2-aminoethyl)-benzenesulfonyl fluoride (AEBSF) and 0.75 μg/ml each of leupeptin, antipain, aprotinin, pepstatin A and chymostatin (Sigma). […] After washing three times with TNT and kinase buffer each time (20 mM HEPES, pH 8.0; 10 mM MgCl2, 100 μM Na3VO4; 20 mM β-glycerophosphate; 50 mM NaCl; 2 mM dithiothreitol; 0.5 μM AEBSF; 0.75 μg/ml each of leupeptin, antipain, aprotinin, pepstatin A, chymostatin), the precipitated proteins were analysed by a kinase assay. […] Proteins were analysed with PAGE and visualised by means of autoradiography. […]

[2] = system: IκB-α and IκB-ε; assay: Western blot of IκB-α/IκB-ε proteolysis in stimulated HUVEC; assay type: cell-based, human
Description: FIG. 5A: nuclear extracts from HUVEC stimulated with blood platelets (PLT; 2×10^8/ml) were examined by EMSA for NF-κB or Sp-1 binding, which is shown in brackets. FIG. 5B: cytosol extracts from cells stimulated with blood platelets were analysed by means of western blots. The proteins IκB-α, IκB-ε, IKK-α and IKK-β are indicated by arrow heads. α-Actin was used as a loading control. FIG. 5C: cytosol extracts from cells stimulated with IL-β (100 pg/ml) were examined by means of western blots. FIG. 5D: cells were incubated with TNF (1.67 ng/ml) and cytosol extracts were examined by means of western blots. The top arrow indicates the phosphorylated forms of IκB-α or IκB-ε. A representative blot is shown for all cases (n=3).
Cytosol extracts were isolated, and electrophoresis and blotting were carried out as described in the prior art (6, 7). After transfer, the membranes were incubated with antibodies to IκB-α (Santa Cruz Biotechnology, Heidelberg), IκB-ε (Prof. N. Rice, NIH, Frederick, Md.), IKK-α, IKK-β (Santa Cruz Biotechnology) or α-actin (Sigma). The proteins were visualised on X-ray film using a western blot chemiluminescence reagent (NEN Life Science Products). Protein sizes were confirmed by means of molecular weight standards (Amersham Pharmacia Biotech, Braunschweig, Bio-Rad, Munich). […]

IL-1β: cytokine used as stimulus of HUVEC, 100 pg/ml
time for which IKK activation is maintained [1]: at least 90 minutes | time of IKK activation peak [1]: 45 min | beginning of IκB-α degradation after incubation [2]: 15 min | time of significant IκB-ε proteolysis [2]: 60 min

Source: patent publication US20040241166A1, “Use of inhibitors of ikk-beta and method for discovery of said inhibitors” (priority 2001, published 2004)
